# Test system: Lactobacillus plantarum - clinical strain
# Experiment: Determination of the MIC value of totarol, broth dilution in 96-well plates with OD and quantitative culture
# Type: cell-based
# Conditions: for OD, average of 3 measurements / OD: 620 nm
# Method: Test of antibacterial activity of totarol using DMI (dimethylisosorbide) as a solvent.
# A suspension of 0.5 McF in physiological saline (suspension density 10^8 cfu/ml) was prepared from a 24-hour culture of a standard strain. 1 ml of the suspension was collected to 9 ml of a TSB broth ([…]). Suspensions with a dilution of 10^−6 were prepared in the described way. A suspension with a cell density of 10^5 cfu/ml was selected for further investigations. For each strain, 2 96-well plates were prepared: the first one was intended for the OD measurement, the second one—for quantitative culture on solid media. • A/ to wells B1-D1, B2-D2 and B-D 4-11, 100 µl of the broth were added; • B/ to wells B3-D3, 200 µl of the broth were added; • C/ to wells B1-D1, 1 µl of stock I was added; • D/ to wells B2-D2, 1 µl of stock II was added; • E/ to wells B3-D3, 2 µl of stock III were added. Using a multichannel pipette, 100 µl of the sample were collected from each of the B3-D3 wells and placed in wells B4-D4 (mixing by sucking the content in and letting it out for 5 times). The pipette tips were replaced and 100 µl of the content were collected from of the B4-D4 wells, and placed in wells B5-D5, mixing as previously. These operations were repeated through the wells B11-D11. The content in the B11-D11 wells was mixed, and 100 µl of the fluid were collected and discarded. This way, a series of dilutions of totarol samples in DMI in the range of 0.32% to 0.0004% was obtained. Then, 100 µl of a corresponding bacterial culture were added to the wells B, C, D 1-11. In consequence, a change in the final concentration range occurred, to 0.16%-0.0002%. Control Preparation: • Negative control: 100 µl of the broth+1 pl DMI were added to the Al well. • Positive control (I): 100 µl of the broth with the bacterial culture were added to the wells E1-G1. • Diluent positive control (II): 100 µl of the broth with the bacterial culture+1 pl DMI were added to the wells E2-G2. The OD value in the individual wells was read at the wavelength of 620 nm (read time 0). From the second 96-well plate, a culture was inoculated by a quantitative method from every dilution onto a well with a proper solid medium, and incubated for 24 h at 37° C. under aerobic or anaerobic conditions, depending on the strain. The plates were incubated under aerobic conditions or in an atmosphere of an elevated CO2 concentration (for the strains requiring it) in an incubator at 37° C. The OD was read after 8 h, 16 h, and 24 h, respectively. Before every OD measurement, the contents of the wells were mixed delicately. In parallel to the OD readout, cultures we inoculated from the second 96-well plate, from every dilution, into plates with a proper solid medium, and incubated for 24 h at 37° C., under aerobic or anaerobic conditions. For the analysis of the experimental results, an average value of the OD measurement obtained from three repetitions in the individual times (0, 8, 16, and 24 h) for the individual microbes (Gardnerella vaginalis, Streptococcus agalactiae, Enterococcus faecalis, Lactobacillus gasseri/plantarum) was taken. Additionally, the number of bacteria grown on solid media was taken into account. The results of the tests confirm the specific, concentration-dependent selectiveness, and the high antibacterial effectiveness of totarol against the pathogenic microorganisms: Gardnerella vaginalis, Streptococcus agalactiae, Enterococcus faecalis at low MIC values safe for bacteria of the Lactobacillus genus.
smiles,measurement,setting,value
"CC(C)c1c(O)ccc2c1CC[C@H]1C(C)(C)CCC[C@]21C [Totarol, totarol]",MIC value,L. plantarum,0.08%
same,viable count by quantitative culture (cfu/ml),"totarol 0.0002%, 0 h",3.9 × 10^5 cfu/ml
same,"OD, average of 3 measurements","totarol 0.0002%, 0 h",0.291
same,viable count by quantitative culture (cfu/ml),"totarol 0.0002%, 8 h",3.5 × 10^5 cfu/ml
same,"OD, average of 3 measurements","totarol 0.0002%, 8 h",0.305
same,viable count by quantitative culture (cfu/ml),"totarol 0.0002%, 16 h",4.2 × 10^6 cfu/ml
same,"OD, average of 3 measurements","totarol 0.0002%, 16 h",0.854
same,viable count by quantitative culture (cfu/ml),"totarol 0.0002%, 24 h",2.9 × 10^7 cfu/ml
same,OD,"totarol 0.0002%, 24 h",1.469
same,viable count by quantitative culture (cfu/ml),"totarol 0.0004%, 0 h",2.1 × 10^5 cfu/ml
same,"OD, average of 3 measurements","totarol 0.0004%, 0 h",0.304
same,viable count by quantitative culture (cfu/ml),"totarol 0.0004%, 8 h",2 × 10^5 cfu/ml
same,"OD, average of 3 measurements","totarol 0.0004%, 8 h",0.309
same,viable count by quantitative culture (cfu/ml),"totarol 0.0004%, 16 h",3.9 × 10^6 cfu/ml
same,"OD, average of 3 measurements","totarol 0.0004%, 16 h",0.892
same,viable count by quantitative culture (cfu/ml),"totarol 0.0004%, 24 h",3.1 × 10^7 cfu/ml
same,OD,"totarol 0.0004%, 24 h",1.508
same,viable count by quantitative culture (cfu/ml),"totarol 0.0007%, 0 h",6.5 × 10^5 cfu/ml
same,"OD, average of 3 measurements","totarol 0.0007%, 0 h",0.292
same,viable count by quantitative culture (cfu/ml),"totarol 0.0007%, 8 h",4.5 × 10^5 cfu/ml
same,"OD, average of 3 measurements","totarol 0.0007%, 8 h",0.300
same,viable count by quantitative culture (cfu/ml),"totarol 0.0007%, 16 h",8.1 × 10^6 cfu/ml
same,"OD, average of 3 measurements","totarol 0.0007%, 16 h",0.902
same,viable count by quantitative culture (cfu/ml),"totarol 0.0007%, 24 h",5.1 × 10^7 cfu/ml
same,OD,"totarol 0.0007%, 24 h",1.504
same,viable count by quantitative culture (cfu/ml),"totarol 0.0013%, 0 h",3.8 × 10^5 cfu/ml
same,"OD, average of 3 measurements","totarol 0.0013%, 0 h",0.293
same,viable count by quantitative culture (cfu/ml),"totarol 0.0013%, 8 h",3.2 × 10^5 cfu/ml
same,"OD, average of 3 measurements","totarol 0.0013%, 8 h",0.305
same,viable count by quantitative culture (cfu/ml),"totarol 0.0013%, 16 h",5.1 × 10^6 cfu/ml
same,"OD, average of 3 measurements","totarol 0.0013%, 16 h",0.913
same,viable count by quantitative culture (cfu/ml),"totarol 0.0013%, 24 h",4.1 × 10^7 cfu/ml
same,OD,"totarol 0.0013%, 24 h",1.521
same,viable count by quantitative culture (cfu/ml),"totarol 0.0025%, 0 h",2.8 × 10^5 cfu/ml
same,"OD, average of 3 measurements","totarol 0.0025%, 0 h",0.284
same,viable count by quantitative culture (cfu/ml),"totarol 0.0025%, 8 h",1.0 × 10^5 cfu/ml
same,"OD, average of 3 measurements","totarol 0.0025%, 8 h",0.303
same,viable count by quantitative culture (cfu/ml),"totarol 0.0025%, 16 h",8.4 × 10^6 cfu/ml
same,"OD, average of 3 measurements","totarol 0.0025%, 16 h",0.914
same,viable count by quantitative culture (cfu/ml),"totarol 0.0025%, 24 h",1.4 × 10^7 cfu/ml
same,OD,"totarol 0.0025%, 24 h",1.552
same,viable count by quantitative culture (cfu/ml),"totarol 0.005%, 0 h",4.2 × 10^5 cfu/ml
same,"OD, average of 3 measurements","totarol 0.005%, 0 h",0.288
same,viable count by quantitative culture (cfu/ml),"totarol 0.005%, 8 h",1.2 × 10^5 cfu/ml
same,"OD, average of 3 measurements","totarol 0.005%, 8 h",0.300
same,viable count by quantitative culture (cfu/ml),"totarol 0.005%, 16 h",1.8 × 10^6 cfu/ml
same,"OD, average of 3 measurements","totarol 0.005%, 16 h",0.895
same,viable count by quantitative culture (cfu/ml),"totarol 0.005%, 24 h",3.8 × 10^7 cfu/ml
same,OD,"totarol 0.005%, 24 h",1.476
same,viable count by quantitative culture (cfu/ml),"totarol 0.01%, 0 h",5.5 × 10^5 cfu/ml
same,"OD, average of 3 measurements","totarol 0.01%, 0 h",0.295
same,viable count by quantitative culture (cfu/ml),"totarol 0.01%, 8 h",5 × 10^5 cfu/ml
same,"OD, average of 3 measurements","totarol 0.01%, 8 h",0.298
same,viable count by quantitative culture (cfu/ml),"totarol 0.01%, 16 h",6.4 × 10^6 cfu/ml
same,"OD, average of 3 measurements","totarol 0.01%, 16 h",0.871
same,viable count by quantitative culture (cfu/ml),"totarol 0.01%, 24 h",3.4 × 10^7 cfu/ml
same,OD,"totarol 0.01%, 24 h",1.445
same,viable count by quantitative culture (cfu/ml),"totarol 0.02%, 0 h",7.5 × 10^5 cfu/ml
same,"OD, average of 3 measurements","totarol 0.02%, 0 h",0.330
same,viable count by quantitative culture (cfu/ml),"totarol 0.02%, 8 h",1.0 × 10^5 cfu/ml
same,"OD, average of 3 measurements","totarol 0.02%, 8 h",0.299
same,viable count by quantitative culture (cfu/ml),"totarol 0.02%, 16 h",5.1 × 10^6 cfu/ml
same,"OD, average of 3 measurements","totarol 0.02%, 16 h",0.837
same,viable count by quantitative culture (cfu/ml),"totarol 0.02%, 24 h",3.1 × 10^7 cfu/ml
same,OD,"totarol 0.02%, 24 h",1.375
same,viable count by quantitative culture (cfu/ml),"totarol 0.04%, 0 h",2.6 × 10^5 cfu/ml
same,"OD, average of 3 measurements","totarol 0.04%, 0 h",0.398
same,viable count by quantitative culture (cfu/ml),"totarol 0.04%, 8 h",1.6 × 10^5 cfu/ml
same,"OD, average of 3 measurements","totarol 0.04%, 8 h",0.370
same,viable count by quantitative culture (cfu/ml),"totarol 0.04%, 16 h",2.4 × 10^5 cfu/ml
same,"OD, average of 3 measurements","totarol 0.04%, 16 h",0.379
same,viable count by quantitative culture (cfu/ml),"totarol 0.04%, 24 h",2.4 × 10^5 cfu/ml
same,OD,"totarol 0.04%, 24 h",0.397
same,viable count by quantitative culture (cfu/ml),"totarol 0.08%, 0 h",3.2 × 10^5 cfu/ml
same,"OD, average of 3 measurements","totarol 0.08%, 0 h",0.401
same,viable count by quantitative culture (cfu/ml),"totarol 0.08%, 8 h",1.2 × 10^4 cfu/ml
same,"OD, average of 3 measurements","totarol 0.08%, 8 h",0.413
same,viable count by quantitative culture (cfu/ml),"totarol 0.08%, 16 h",3.5 × 10^4 cfu/ml
same,"OD, average of 3 measurements","totarol 0.08%, 16 h",0.368
same,viable count by quantitative culture (cfu/ml),"totarol 0.08%, 24 h",5 × 10^4 cfu/ml
same,OD,"totarol 0.08%, 24 h",0.357
same,viable count by quantitative culture (cfu/ml),"totarol 0.16%, 0 h",3.7 × 10^5 cfu/ml
same,"OD, average of 3 measurements","totarol 0.16%, 0 h",0.472
same,viable count by quantitative culture (cfu/ml),"totarol 0.16%, 8 h",4 × 10^4 cfu/ml
same,"OD, average of 3 measurements","totarol 0.16%, 8 h",0.320
same,viable count by quantitative culture (cfu/ml),"totarol 0.16%, 16 h",7.1 × 10^4 cfu/ml
same,"OD, average of 3 measurements","totarol 0.16%, 16 h",0.346
same,viable count by quantitative culture (cfu/ml),"totarol 0.16%, 24 h",4.1 × 10^4 cfu/ml
same,OD,"totarol 0.16%, 24 h",0.371

# Source: patent publication US11534412B2, “Application of totarol and pharmaceutical composition containing totarol” (Emergopharm SP. Z O.O. SP.K., priority 2017, dated 2022)
